# From publication PMC7441570 (Chemical biology & drug design, 2019)
# Experiments:
# in vitro = settings: human, Caco-2
# human RNase H = settings: read-out: human RNase H IC50; ref Budihas et al., 2005; cited from earlier work
# [1] = system: bacterial (Escherichia coli) RNase H; settings: read-out: bacterial (Escherichia coli) RNase H IC50; ref Budihas et al., 2005; cited from earlier work
# HIV-1 RNase H = settings: read-out: HIV-1 RNase H IC50; in vitro; ref Budihas et al., 2005; cited from earlier work
SMILES,Papp (in vitro),recovery (in vitro),IC50 (human RNase H),IC50 [1],IC50 (HIV-1 RNase H)
COCCc1ccc(OCC(O)CNC(C)C)cc1 (stereo not shown) [metoprolol],16.3 ×10⁻⁶ cm/s,> 93%,–,–,–
CC(C)(C)NCC(O)COc1cccc2c1CC(O)C(O)C2 (stereo not shown) [nadolol],0.11 ×10⁻⁶ cm/s,> 93%,–,–,–
CC(C)c1ccc(O)c(=O)c(O)c1 [β-thujaplicinol],–,–,5.7 µM,50 µM,~200 nM
